Read-outs that look alike come from different tables or passages of the source.

From patent EP0738149B1 (priority 1994, dated 1995) come the findings set out here.

In one data set the test system is hypoxic rat. Put plainly: Amphetamine-induced stereotype behavior in hypoxic rat, Experiments 2A and 2B. Type of data set: in vivo. Conditions: for total number of lateral head movements per minute: Exp 2A, 0.5mg/kg daily 29 days, D-amphetamine sulfate 0.5mg/kg s.c., 45-60 min after, Mean ± SEM; for lateral head movements: Exp 2B, 0.3mg/kg daily i.p. 14 days, 12 month-old rats. Here is the method:
Experiment 2A. Wistar male rats, 15-19 month-old, were exposed to a single hypoxic episode as described above. […] Rats pretreated for 29 days with daily doses of the test drugs (0.5mg/kg), received a sub-cutaneous (s.c.) injection of D-amphetamine sulfate at a dose of 0.5mg/kg. D-amphetamine is known to cause an enhancement of the effects of CNS dopamine by a mechanism involving dopamine release, and blockage of its uptake and its metabolism by MAO. The behavioral manifestation of amphetamine action is a stereotypic pattern of lateral head movements.
Counts of lateral head movements were taken over two successive intervals of 1 min each, 45-60 min after the injection of amphetamine and then averaged.
Experiment 2B. […] The drugs were given by i.p. injection. • 3) Duration of the treatment: 14 days.

The subject of data set [1] is rats. Put plainly: Closed head injury in rats: brain oedema (water content), Experiments 4A-4E. Type of data set: in vivo. Conditions: Exp 4A; relative to normal brain water content of 78.5 %. Here is the method:
After the second evaluation of motor function, the animals were sacrificed and the brains were removed. A piece of tissue was weighed to yield a wet weight(WW), then dried in an oven for 24 hours at 95C and re-weighed to yield a dry weight(DW). Percentage water content in the tissue was calculated as (WW-DW)x100/WW.

Data set [2] concerns mice. Kind of data set: Neurotoxicity in mice (rotorod ataxia test), i.p. The procedure: (§1) Neurotoxicity of the claimed agents was also assessed in mice (i.p. administration) by the rotorod ataxia test and/or in rats (p.o. administration) by positional sense test and gait stance test. […] The term quantitating the neurotoxicity is the medial neurological toxic dose (TD50), was determined in the above tests.
On the technique in general: The rotarod test checks motor coordination on a turning rod.

Data set [3] in a line: Neurotoxicity in mice (rotorod ataxia test), i.p. Conditions: mouse, in vivo, ip. Here is the method:
as §1

The test system of a further data set is Male mongolian gerbils. Put plainly: Global brain ischemia in gerbils (CA1 pyramidal neurons). Type of data set: in vivo. Conditions: 3 injections, fraction of hippocampi protected from ischemia, 14 days post-ischemia. The procedure, abridged:
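Global ischemia induced by clamping each artery for 5 min. Compound given ip 2 min after clamp removal, then daily for the next 2 days (3 doses). CA1 pyramidal neurons counted 14 days post-ischemia in H&E-stained anterior hippocampal sections; percent protection is the fraction of hippocampi protected at the stated dose.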

The next data set relates to male ICR albino mice. Kind of data set: Hypobaric hypoxia survival time in mice. Type of data set: in vivo. The procedure, abridged:
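Drugs given i.p. 1 h before hypobaric hypoxia at 100 mmHg; time to respiratory arrest recorded, cutoff 15 min. Effect expressed as percent of saline- or vehicle-control survival time. Each dose tested in two groups of 4 mice, controls run before and after.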

For data set [4], the system named is rats. Kind of data set: Closed head injury in rats: motor function (Neurological Severity Status), Experiments 4A-4E.
Data set [5] concerns mice. Conditions: Mus musculus, ip, read-out: MICE scMet ED50, mice, i.p.; Table 16.
Data set [6] relates to rats. Put plainly: Electrically kindled rat model of epilepsy, p.o. Conditions: po, read-out: ED50 (prevented seizures). Type of data set: in vivo. An excerpt:
The rat electrical kindling model of epilepsy has been known to show efficacy of antiepileptic agents against complex partial seizures that evolve into generalized motor seizures. In these tests, rats were electrically stimulated via corneal electrodes twice daily for approximately 5 days and then once daily for an additional 10 days. Once the seizure criteria, as described by R.J. Racine, et al., Electroenceph. Clin. Neurophysiol. 32: 281-294 (1972), were met, the test substance was administered p.o. to rats, and the rat electrically stimulated, and observed for the presence or absence of a seizure.

For data set [7], the system named is rats. As to conditions: Rattus norvegicus, po, read-out: RATS scMet ED50.
[8] abbreviates: 50 mg/kg ip one hour prior to hypoxia.
[9] abbreviates: 100 mg/kg ip one hour prior to hypoxia.
Setting [10] is: dose cell empty (line below 50 mg/kg ip).
The mark [11] stands for this setting: Exp 4A, 0.1mg/kg i.p. at 0,4,8 and 12 hours post-trauma.
Setting [12] is: Exp 4B, 0.1mg/kg once a day for 14 days.

For the compound `C#CCN(C)[C@H](C)Cc1ccccc1` [deprenyl], in the data set with hypoxic rat, the “total number of lateral head movements per minute” value was 76 ± 3 per minute and the lateral head movements was determined as 77 ± 3.
For the compound `N[C@@H]1CCc2ccccc21` [R-AI, (R)-1-aminoindan], the “reduction in trauma-induced oedema” value in the data set with rats [1] was found to be 50%. Moreover, the “MICE TD50” value against mice [2] (mice, i.p., Table 16) is 71 mg/kg. In addition, the TD50 in data set [3] is 71 mg/kg. The “PERCENT PROTECTION” value in the data set with Male mongolian gerbils (0.1 mg/kg ip), with Male mongolian gerbils (1.0 mg/kg ip) and with Male mongolian gerbils (10.0 mg/kg ip) was 25.0% in each case. For the same compound, the “PROTECTION % OF RESPECTIVE CONTROL” value in the data set with male ICR albino mice (setting [8]) is 358±224 % OF RESPECTIVE CONTROL; in the data set with male ICR albino mice (setting [9]) it was 395±199 % OF RESPECTIVE CONTROL; with male ICR albino mice (setting [10]), 411±174 % OF RESPECTIVE CONTROL. For the same compound, the “NSS 1hr” value is listed as 16.8 with rats [4] (setting [11]); 16.3 in the data set with rats [4] (Exp 4C, 0.03 mg/kg); 16.2 with rats [4] (Exp 4C, 0.1 mg/kg); 16.6 with rats [4] (Exp 4C, 0.3 mg/kg); 16.8 with rats [4] (Exp 4C, 1.0 mg/kg); 16.4 in the data set on rats [4] (Exp 4C, 3.0 mg/kg). Moreover, the “NSS 24hr” value in the data set with rats [4] (setting [11]) came out at 8.3; in the data set with rats [4] (Exp 4C, 0.03 mg/kg), 10.4; with rats [4] (Exp 4C, 0.1 mg/kg), 10.4; with rats [4] (Exp 4C, 0.3 mg/kg), 8.5; in the data set with rats [4] (Exp 4C, 1.0 mg/kg) it was 8.8; with rats [4] (Exp 4C, 3.0 mg/kg), 7.8. Further, the ΔNSS with rats [4] (Exp 4A, 0.1mg/kg i.p. at 0,4,8 and 12 hours post-trauma, change 1 hour to 24 hours) is recorded as 8.5±0.5; in the data set with rats [4] (Exp 4C, 0.03 mg/kg), 5.9±0.3; in the data set with rats [4] (Exp 4C, 0.1 mg/kg), 5.8±0.4; with rats [4] (Exp 4C, 0.3 mg/kg), 8.1±0.5; with rats [4] (Exp 4C, 1.0 mg/kg), 8.0±0.5; in the data set on rats [4] (Exp 4C, 3.0 mg/kg) it was 8.6±0.7. For the same compound, the ΔNSS is 8.8±10.8 in the data set with rats [4] (Exp 4D, 1mg/kg, times of administration 0); 8.0±1.0 in the data set on rats [4] (Exp 4D, 1mg/kg, times of administration 0 + 4h); 8.0±0.1 with rats [4] (Exp 4D, 1mg/kg, times of administration 0 + 8h); 8.7±0.6 in the data set on rats [4] (Exp 4D, 1mg/kg, times of administration 0 + 12h); 8.2±0.7 with rats [4] (Exp 4D, 1mg/kg, times of administration 0,4,8,12h); 8.4±0.6 with rats [4] (Exp 4E, 1mg/kg given + 1h post head trauma). In addition, the ΔNSS with rats [4] (Exp 4E, 1mg/kg given + 2h post head trauma) stood at 7.0±0.5; with rats [4] (Exp 4E, 1mg/kg given + 3h post head trauma), 7.4±0.5. The “NSS at 1hr” value in the data set on rats [4] (setting [12]) came to 17.7±0.5. In addition, in the data set with rats [4] (setting [12]), the “ΔNSS at 24hr” value is reported as 7.3±0.8. For the same compound, the “ΔNSS at 48hr” value in the data set on rats [4] (setting [12]) was determined as 9.3±0.8. For the same compound, in the data set with rats [4] (setting [12]), the “ΔNSS at 7d” value was found to be 11.8±0.5. The “ΔNSS at 14d” value with rats [4] (setting [12]) worked out at 14.0±0.4. Moreover, the “total number of lateral head movements per minute” value in the data set with hypoxic rat is 108 ± 3 per minute. In the data set on hypoxic rat, this compound came in with a lateral head movements of 92 ± 3.
With `CC(=O)N[C@@H]1CCc2ccccc21` [Example 18, (R)-N-Acetyl-1-aminoindan], the median effective dose (ED50) in the data set with mice [5] is 66 mg/kg; in the data set with rats [6], 24.6 mg/kg; with rats [7], over 250 mg/kg. In addition, the “MICE TD50” value in the data set with mice [2] (mouse, in vivo, ip) came out at 75 mg/kg. This compound also displayed a TD50 in data set [3] (MICE TD50) of 75 mg/kg. Besides, the “PERCENT PROTECTION” value came to 25.0% in the data set on Male mongolian gerbils (0.1 mg/kg ip), 25.0% in the data set on Male mongolian gerbils (1.0 mg/kg ip) and 66.7% in the data set with Male mongolian gerbils (10.0 mg/kg ip). In addition, the entries for the “PROTECTION % OF RESPECTIVE CONTROL” value with male ICR albino mice (setting [8]), in the data set with male ICR albino mice (setting [9]) and in the data set on male ICR albino mice (setting [10]) were 271±193 % OF RESPECTIVE CONTROL, 397±244 % OF RESPECTIVE CONTROL and 383±233 % OF RESPECTIVE CONTROL, respectively.

The ED50 is the dose that gives a 50% effect, or the effect in half of the subjects.
